Assay results from patent publication US11542273B2, “Amide compound having bet proteolysis-inducing action and medicinal application thereof” (MITSUBISHI TANABE PHARMA CORPORATION, priority 2018, dated 2023).

Legend:
[1] = target: BRD4 protein (Homo sapiens (Human), UniProt O60885); experiment: BRD4 protein degradation inducing action in cancer cells (immunofluorescence, Operetta); assay type: cell-based; conditions: LNCaP cells, 6 hr treatment, fluorescence intensity
Experimental: The degradation inducing action of the compound of the present invention on BRD4 protein in cancer cells was evaluated in vitro using human prostate cancer LNCaP cells. LNCaP cells were suspended in 10% FBS/RPMI1640, seeded in a 96 well Cell carrier plate (Perkin Elmer) and cultured at 5% CO2, 37° C. overnight. A test compound dissolved in DMSO was diluted with 10% FBS/RPMI1640 and added and the cells were further cultured for 6 hr. After culturing, the cells were immobilized with 4% para-formaldehyde/PBS and further subjected to a permeation treatment with 0.25% Triton X-100/PBS. Thereafter, the cells were blocked with 10% BSA/PBS, a solution containing Anti-Brd4 antibody (Abcam) or Anti-BRD4 (Sigma-Aldrich) as the primary antibody was added and the cells were incubated at 4° C. overnight. Thereafter, as the secondary antibody, a solution containing secondary antibody A shown below was added to Example compounds 1-190, 223 and 224, and a solution containing secondary antibody B shown below was added to Example compounds 191-222, and 0.5 μg/mL Hoechst 33342 (Sigma-Aldrich) and 14 μM Acti-Stain 555 Fluorescent Phalloidin (Cytoskeleton) were further added. After incubation for 1 hr, BRD4 protein amount was measured by Operetta (Perkin Elmer) as fluorescence intensity.
• Anti-Rabbit IgG(H+L), F(ab′)2 Fragment (Alexa Fluor 488 Conjugate) (Cell Signaling Technology), fluorescence intensity was measured at excitation: 495 nm, emission: 519 nm. Secondary Antibody B • Goat anti-Rabbit IgG(H+L) Cross-Adserbed Secondary Antibody (Alexa Fluor 546) (Thermo Fisher Scientific) fluorescence intensity was measured at excitation: 560 nm, emission: 572 nm.
The BRD4 protein degradation inducing activity of the compound of the present invention in LNCaP cells is shown in DC50 value in Table 3. The DC50 value is a concentration of the compound showing 50% fluorescence intensity when the fluorescence intensity thereof under compound untreated condition is 100%. It was calculated from the straight line connecting the fluorescence intensity at two points enclosing the 50% fluorescence intensity and the compound concentration.

[2] = test system: human prostate cancer LNCaP cells; experiment: Cytotoxic action on cancer cells (WST-8, 96 hr); assay type: cell-based; conditions: Homo sapiens, LNCaP, 96 h, read-out: LNCaP cytotoxic activity: IC50
Experimental: The cytotoxic action of the compound of the present invention against human cancer cells was evaluated in vitro. In this experiment, (+)-JQ1 (Nature volume 468, pages 1067-1073 (23 Dec. 2010)) known to have an inhibitory activity on the binding of BRD4 protein and a ligand therefor was used as a positive control drug. Respective cells were suspended in 10% FBS/RPMI1640, seeded in a 96 well plate and cultured at 5% CO2, 37° C. overnight. A test compound dissolved in DMSO was diluted with 10% FBS/RPMI1640 and added and the cells were further cultured for 96 hr. After culturing, the viable cell number was measured using a cell number measurement WST-8 kit (Kishida Chemical Co., Ltd.). As a control, the measurement was performed under conditions free of the test compound. The cytotoxic activity of the compound of the present invention against human prostate cancer LNCaP cells is shown in IC50 value in Table 1. […] It was calculated from the straight line connecting the cell survival rate at two points enclosing the 50% cell survival rate and the compound concentration. In addition, the cytotoxic activity against respective cancer cells of human acute myeloid leukemia MV-4-11 cell, human chronic myeloid leukemia K562 cell, human multiple myeloma MM.1S cell, human diffuse large B-cell lymphoma SU-DHL-6 cell, human T-cell leukemia Jurkat cells, human Burkitt lymphoma Raji cell, human castration-resistant prostate cancer PC-3 cell, human ovarian cancer A2780 cell, human bladder cancer 5637 cell, human breast cancer ZR-75-1 cell, human triple negative breast cancer MDA-MB-231 cell, human uterine sarcoma MES-SA cell, human gastric cancer SNU-16 cell, human non-small cell lung cancer NCI-H1975 cell, human small cell lung cancer NCI-H82 cell, human large cell lung cancer NCI-H460 cell, human colorectal cancer HCT116 cell, human glioma U-87 MG cell, human pancreatic cancer AsPC-1 cell, and human liver cancer Hep G2 cell is shown in IC50 value in Table 2.

Row | DC50 [1] [nM] | Structure (SMILES) | IC50 [2] [nM]
1 | 0.11 | COC(=O)C[C@@H]1N=C(c2ccc(-c3ccc4sc(C(=O)N[C@H](C(=O)N5C[C@H](O)C[C@H]5C(=O)N[C@@H](C)c5ccc(-c6scnc6C)cc5)C(C)(C)C)nc4c3)cc2)c2c(sc(C)c2C)-n2c(C)nnc21 [Example 179, methyl [(6S)-4-{4-[2-({(2S)-1-[(2S,4R)-4-hydroxy-2-({(1S)-1-[4-(4-methyl-1,3-thiazol-5-yl)phenyl]ethyl}carbamoyl)pyrrolidin-1-yl]-3,3-dimethyl-1-oxobutan-2-yl}carbamoyl)-1,3-benzothiazol-5-yl]phenyl}-2,3,9-trimethyl-6H-thieno[3,2-f][1,2,4]triazolo[4,3-a][1,4]diazepin-6-yl]acetate] | 0.21
2 | 0.53 | COC(=O)C[C@@H]1N=C(c2ccc(-c3cc(C(=O)N[C@H](C(=O)N4C[C@H](O)C[C@H]4C(=O)N[C@@H](C)c4ccc(-c5scnc5C)cc4)C(C)(C)C)cc(F)c3F)cc2)c2c(sc(C)c2C)-n2c(C)nnc21 [Example 173, methyl {(6S)-4-[2′,3′-difluoro-5′-({(2S)-1-[(2S,4R)-4-hydroxy-2-({(1S)-1-[4-(4-methyl-1,3-thiazol-5-yl)phenyl]ethyl}carbamoyl)pyrrolidin-1-yl]-3,3-dimethyl-1-oxobutan-2-yl}carbamoyl)[1,1′-biphenyl]-4-yl]-2,3,9-trimethyl-6H-thieno[3,2-f][1,2,4]triazolo[4,3-a][1,4]diazepin-6-yl}acetate] | 0.53
3 | 0.37 | Cc1ncsc1-c1ccc([C@H](C)NC(=O)[C@@H]2C[C@@H](O)CN2C(=O)[C@@H](NC(=O)/C=C/c2ccc(C3=N[C@@H](C)c4nnc(C)n4-c4sc(C)c(C)c43)cc2)C(C)(C)C)cc1 [Example 201, (2S,4R)-1-[(2S)-3,3-dimethyl-2-{[(2E)-3-{4-[(6S)-2,3,6,9-tetramethyl-6H-thieno[3,2-f][1,2,4]triazolo[4,3-a] [1,4]diazepin-4-yl]phenyl}prop-2-enoyl]amino}butanoyl]-4-hydroxy-N-{(1S)-1-[4-(4-methyl-1,3-thiazol-5-yl)phenyl]ethyl}pyrrolidine-2-carboxamide] | 0.34
4 | 0.38 | Cc1ncsc1-c1ccc([C@H](C)NC(=O)[C@@H]2C[C@@H](O)CN2C(=O)[C@@H](NC(=O)COc2ccc(-c3ccc(C4=N[C@@H](C)c5nnc(C)n5-c5sc(C)c(C)c54)cc3)cc2)C(C)(C)C)cc1 [Example 33, (2S,4R)-1-{(2S)-3,3-dimethyl-2-[2-({4′-[(6S)-2,3,6,9-tetramethyl-6H-thieno[3,2-f][1,2,4]triazolo[4,3-a] [1,4]diazepin-4-yl][1,1′-biphenyl]-4-yl}oxy)acetamido]butanoyl}-4-hydroxy-N-{(1S)-1-[4-(4-methyl-1,3-thiazol-5-yl)phenyl]ethyl}pyrrolidine-2-carboxamide] | 0.26
5 | 0.73 | CNC(=O)C[C@@H]1N=C(c2ccc(-c3ccc(C(=O)N[C@H](C(=O)N4C[C@H](O)C[C@H]4C(=O)N[C@@H](C)c4ccc(-c5scnc5C)cc4)C(C)(C)C)cc3F)cc2)c2c(sc(C)c2C)-n2c(C)nnc21 [Example 206, (2S,4R)-1-{(2S)-2-[(2-fluoro-4′-{(6S)-2,3,9-trimethyl-6-[2-(methylamino)-2-oxoethyl]-6H-thieno[3,2-f] [1,2,4]triazolo[4,3-a][1,4]diazepin-4-yl}[1,1′-biphenyl]-4-carbonyl)amino]-3,3-dimethylbutanoyl}-4-hydroxy-N-{(1S)-1-[4-(4-methyl-1,3-thiazol-5-yl)phenyl]ethyl}pyrrolidine-2-carboxamide] | 0.68

The next lines start with the compound.

Row | Structure (SMILES) | DC50 [1] [nM] | IC50 [2] [nM]
6 | COC(=O)C[C@@H]1N=C(c2ccc(-c3ccc(C(=O)N[C@H](C(=O)N4C[C@H](O)C[C@H]4C(=O)NCc4ccc(-c5scnc5C)cc4)C(C)(C)C)cc3F)cc2)c2c(sc(C)c2C)-n2c(C)nnc21 [Example 189, methyl {(6S)-4-[2′-fluoro-4′-({(2S)-1-[(2S,4R)-4-hydroxy-2-({[4-(4-methyl-1,3-thiazol-5-yl)phenyl]methyl}carbamoyl)pyrrolidin-1-yl]-3,3-dimethyl-1-oxobutan-2-yl}carbamoyl) [1,1′-biphenyl]-4-yl]-2,3,9-trimethyl-6H-thieno [3,2-f][1,2,4]triazolo [4,3-a][1,4]diazepin-6-yl}acetate] | 0.44 | 0.17
7 | COC(=O)C[C@@H]1N=C(c2ccc(-c3ccc(C(=O)N[C@H](C(=O)N4C[C@H](O)C[C@H]4C(=O)N[C@@H](C)c4ccc(-c5scnc5C)cc4)C(C)(C)C)s3)cc2)c2c(sc(C)c2C)-n2c(C)nnc21 [Example 141, methyl [(6S)-4-{4-[5-({(2S)-1-[(2S,4R)-4-hydroxy-2-({(1S)-1-[4-(4-methyl-1,3-thiazol-5-yl)phenyl]ethyl}carbamoyl)pyrrolidin-1-yl]-3,3-dimethyl-1-oxobutan-2-yl}carbamoyl)thiophen-2-yl]phenyl}-2,3,9-trimethyl-6H-thieno[3,2-f][1,2,4]triazolo[4,3-a][1,4]diazepin-6-yl]acetate] | 0.72 | 0.38
8 | COC(=O)C[C@@H]1N=C(c2ccc(-c3ccc(/C=C/C(=O)N[C@H](C(=O)N4C[C@H](O)C[C@H]4C(=O)N[C@@H](C)c4ccc(-c5scnc5C)cc4)C(C)(C)C)cc3)cc2)c2c(sc(C)c2C)-n2c(C)nnc21 [Example 27, methyl [(6S)-4-{4′-[(1E)-3-({(2S)-1-[(2S,4R)-4-hydroxy-2-({(1S)-1-[4-(4-methyl-1,3-thiazol-5-yl)phenyl]ethyl}carbamoyl)pyrrolidin-1-yl]-3,3-dimethyl-1-oxobutan-2-yl}amino)-3-oxopropen-1-yl][1,1′-biphenyl]-4-yl}-2,3,9-trimethyl-6H-thieno[3,2-f][1,2,4]triazolo[4,3-a] [1,4]diazepin-6-yl]acetate] | 0.085 | 0.064
9 | COC(=O)C[C@@H]1N=C(c2ccc(Nc3cccc(OCC(=O)N[C@H](C(=O)N4C[C@H](O)C[C@H]4C(=O)N[C@@H](C)c4ccc(-c5scnc5C)cc4)C(C)(C)C)c3)cc2)c2c(sc(C)c2C)-n2c(C)nnc21 [Example 47, methyl [(6S)-4-(4-{3-[2-({(2S)-1-[(2S,4R)-4-hydroxy-2-({(1S)-1-[4-(4-methyl-1,3-thiazol-5-yl)phenyl]ethyl}carbamoyl)pyrrolidin-1-yl]-3,3-dimethyl-1-oxobutan-2-yl}amino)-2-oxoethoxy]anilino}phenyl)-2,3,9-trimethyl-6H-thieno[3,2-f][1,2,4]triazolo[4,3-a][1,4]diazepin-6-yl]acetate] | 0.45 | 0.42
10 | Cc1ncsc1-c1ccc([C@H](C)NC(=O)[C@@H]2C[C@@H](O)CN2C(=O)[C@@H](NC(=O)C#Cc2ccc(C3=N[C@@H](C)c4nnc(C)n4-c4sc(C)c(C)c43)cc2)C(C)(C)C)cc1 [Example 198, (2S,4R)-1-{(2S)-3,3-dimethyl-2-[(3-{4-[(6S)-2,3,6,9-tetramethyl-6H-thieno[3,2-f][1,2,4]triazolo[4,3-a][1,4]diazepin-4-yl]phenyl}prop-2-ynoyl)amino]butanoyl}-4-hydroxy-N-{(1S)-1-[4-(4-methyl-1,3-thiazol-5-yl)phenyl]ethyl}pyrrolidine-2-carboxamide] | 0.058 | 0.061
